What was measured:
cancer cells = test: In vitro anticancer activity versus other glycolytic inhibitors; type: cell-based
[1] = mouse, in vivo
HL-60 leukemia cells = test: Drug combination index, median-effect analysis; type: cell-based, human; conditions: combination with rapamycin (100 ng/ml), 24 h; CI less than 1 = synergistic
Description: (§1) FIGS. 35A-35D show synergistic cytotoxic effect of rapamycin and glycolycin (3-BrOP) in human lymphoma and leukemia cells. In FIG. 35A, the human lymphoma Raji cells were treated with 3-BrOP (30 μM), rapamycin (100 ng/ml), or their combinations as indicated, and apoptosis was measured by flow cytometry analysis after the cells were double-stained with annexin-V and PI as described in the Examples. In case of drug combination, cells were first treated with rapamycin for 18 h before addition of 3-BrOP and incubated for an additional 24 h or 48 h. In FIG. 35B, there is concentration-dependent induction of loss of cell viability by 3-BrOP in the presence and absence of rapamycin (100 ng/ml, 24 h) in Raji cells. Cells were double-stained with annexin-V and PI followed by flow cytometry analysis, and viable cells were expressed as % of control. […] Cell viability was determined as described above.
(§2) The above observations prompted the present inventors to use a formal drug combination analysis to determine if rapamycin and 3-BrOP have a synergistic effect. […] Cells were treated with various concentrations of 3-BrOP in the presence of a fixed concentration of rapamycin (100 ng/ml) for 24 h, and the percentage of apoptotic cells was quantitated by flow cytometry analysis using annexin-V/PI double staining. […]

Raji cells [2] = test: Drug combination index, median-effect analysis; type: cell-based, human; conditions: combination with rapamycin (100 ng/ml), 24 h; CI less than 1 = synergistic
Description: as §1, §2

HL-60 cells = test: MTT assay, in vitro cytotoxic activity before and after storage of drug solutions; type: cell-based, human; conditions: pH 7.0, 72 h drug incubation
[3] = Stability of neutral drug solution on storage
[4] = system: p70S6K, 4E-BP-1 and BAD phosphorylation in Raji cells; test: Phosphorylation of mTOR downstream targets and BAD, western blot; type: cell-based, human
Description: The phosphorylation of p70S6K and 4E-BP1, two target molecules of mTOR, was examined as indications of mTOR inhibition.
The effect of rapamycin on BAD phosphorylation in 3-BrOP-treated cells was examined.
Protein lysates were prepared from the control and drug-treated cells, and separated by electrophoresis on 10% SDS-PAGE. […] The antibodies were dilute at 1:1,000 unless indicated otherwise. The bound primary antibodies were detected using appropriate horseradish peroxidase-conjugated secondary antibodies, followed by detection with a SuperSignal enhanced chemiluminescence kit (Pierce, Rockford, Ill.). For sequential blotting, the membranes were stripped with a stripping buffer (Pierce, Rockford, Ill.) followed by re-blotting with proper antibodies.

[5] = system: human lymphoma cells (Raji); test: Apoptosis, annexin-V/PI flow cytometry; type: cell-based; conditions: for apoptotic cells: 30 μM in combination with 100 ng/ml rapamycin; for apoptosis: 30 μM
Text: Because the mTOR pathway plays an important role in promoting cellular nutrient metabolism and cell growth, and function to enhance cell survival downstream of the P13K/Akt pathway, the present inventors postulated that a simultaneous inhibition of mTOR and glycolysis, which serve as a major metabolic pathway for ATP generation in cancer cells, would severely impact cellular energy metabolism and have a potent cytotoxic effect against malignant cells. To test this possibility, rapamycin was used as an agent to inhibit mTOR, and glycolycin (3-bromo-2-oxopropionate, abbreviated herein as 3-BrOP) to inhibit glycolysis.
Cell growth inhibition was determined by direct counting of the cells after they were treated with rapamycin, 3-BrOP, or their combination. A Coulter Z2 Particle Count & Size Analyzer was used to determine cell counts at 24 h, 48 h, and 72 h after drug incubation. Apoptosis was measured by flow cytometric analysis of cells stained with annexin V-FITC and propidium iodide (PI). Cells were treated with the indicated compounds under various incubation conditions as described in the figure legends. The samples were collected, washed with cold PBS, and then suspended in annexin-V binding buffer. The cells were stained with annexin V-FITC for 15 min at room temperature, washed, and then stained with PI. The samples were analyzed using a FACSCalibur flow cytometer equipped with CELLQuestPro software (Becton-Dickinson, San Jose, Calif.).

Raji cells [6] = test: Cellular glucose uptake, [3H]-2-deoxyglucose; type: cell-based, human; conditions: 2 h
Description: After the samples were washed three times with cold PBS, the radioactivity in the cell pellets was quantified by liquid scintillation counting. […] Intracellular nucleotides were extracted from the cells with 0.4 N of perchloric acid (PCA) for 10 min in ice-bath, neutralization with concentrated KOH to pH 7.0, and analyzed by HPLC analysis as described previously (Xu et al., 2005; Seymour et al., 1996). The intracellular ATP contents were calculated using the ATP standard curve generated under identical HPLC conditions, and normalized by equal cell number. The relative cellular ATP levels were expressed as percent of the control cells.

## CCCOC(=O)C(=O)CBr [Glycolycin, propyl 3-bromo-2-oxopropionate]
Cancer cells
  potency as measured by IC50 relative to currently available glycolytic inhibitors with a similar mechanism of action: 10-20 fold
[1]
  toxicity in mice: No obvious toxicity
[1]; 5 mg/kg
  toxicity in animals, such as mice: no apparent toxicity
HL-60 leukemia cells
  drug combination index (CI): < 1.0
Raji cells [2]
  drug combination index (CI): < 1.0
HL-60 cells; 5 μM, fresh drug solution
  % Cell Survival: 19.3 ± 5.7%
HL-60 cells; 10 μM, drug stored for 3 weeks at 4° C.
  % Cell Survival: 3.0 ± 1.3%
HL-60 cells; 10 μM, fresh drug solution
  % Cell Survival: 2.5 ± 0.8%
HL-60 cells; 30 μM, drug stored for 3 weeks at 4° C.
  % Cell Survival: 2.9 ± 1.2%
HL-60 cells; 30 μM, fresh drug solution
  % Cell Survival: 3.7 ± 0.6%
HL-60 cells; 100 μM, drug stored for 3 weeks at 4° C.
  % Cell Survival: 2.5 ± 0.9%
HL-60 cells; 100 μM, fresh drug solution
  % Cell Survival: 3.5 ± 1.7%
[3]; kept at 4° C. for 3 weeks
  activity of solution after storage: remained stable
[3]; pH 7.0, kept at 4° C.
  stability of solution at neutral pH: stable
[4]; 20 μM, 6 hours
  BAD phosphorylation at Ser112: did not reduce
[4]; 40 μM in the presence of rapamycin (100 ng/ml)
  BAD phosphorylation at Ser112: complete abolished
[4]; 40 μM, 6 hours
  BAD phosphorylation at Ser112: substantial decrease
  phosphorylation of P70 S6K at Thr389 and 4E-BP-1 at Ser65: some inhibition
[5]; 24 h
  apoptotic cells: 38%
  apoptosis: 19%
[5]; 48 h
  apoptotic cells: 79%
  apoptosis: 49%
Raji cells [6]; 30 μM
  decrease of glucose uptake: 33%
Raji cells [6]; 50 μM
  decrease of glucose uptake: 71%
Raji cells [6]; Homo sapiens, Raji, 30 μM, in the presence of rapamycin (100 ng/ml, 18 h pre-treatment)
  inhibition at 30 µM: 70%
Raji cells [6]; Homo sapiens, Raji, 50 μM, combination with 100 ng/ml of rapamycin (18 h pre-treatment)
  inhibition at 50 µM: 94%
